Reference: patent publication US10981911B2, “Imidazopyrrolopyridine as inhibitors of the JAK family of kinases” (Janssen Pharmaceutica NV, priority 2016, dated 2021)
Like-named read-outs stand apart in the source and are kept apart here.

Tests used:
IFNα pSTAT4 (JAK1/TYK2) = IFNα pSTAT4 (JAK1/TYK2) cellular assay (AlphaLISA, PBMCs); type: cell-based; details: PBMC, IFNα at 4 ng/mL
Experimental: The AlphaLISA assay (based on Alpha Technology from PerkinElmer) was performed by first plating freshly thawed PBMCs (Biological Specialty Corporation) in 384-well plates at 100,000 cells per 6 μL per well in DMEM (Dulbecco's Modified Eagle Medium) containing 10% FBS (fetal bovine serum) and 1,000 I.U./mL penicillin and 1,000 μg/mL streptomycin. The cells were then treated with 2 μL/well of compounds diluted in DMSO at half-log titrated concentrations, with a highest test concentration of 10 μM and 0.5% final DMSO concentration, for thirty minutes at 37° C. Next, the cells were stimulated with 2 μL/well of IFNα (PBL Assay Science Cat. No. 11101-2) at 4 ng/mL for thirty minutes at 37° C. The cellular reactions were terminated by the addition of 2 μL/well of lysis buffer (PerkinElmer Cat. No. ALSU-PST4-A10K) followed by an incubation of five minutes at room temperature. 4 μL/well of acceptor mix (PerkinElmer Cat. No. ALSU-PST4-A10K) was added to the cells and incubated in the dark for one hour at room temperature. Then, 4 μL/well of donor mix (PerkinElmer Cat. No. ALSU-PST4-A10K) was added to the cells and incubated in the dark overnight at room temperature. Finally, the plates were read on a PerkinElmer EnVision for detection of the time-resolved fluorescence signal. The percentage of IFNα-dependent pSTAT4 inhibition was determined at the compound test concentrations; and for each compound, a dose curve was generated and the IC50 was calculated. Compound IC50 was calculated by nonlinear regression, sigmoidal dose response analysis of the half-log dilution titration curve of the compound concentration vs. Alpha signal. The term “Alpha” is defined in the immediately preceding cellular assay description.

[1] = In vivo p.o. dosing: plasma and colon tissue concentrations (Protocols 1 and 2); parameters: species or system female C57BL/6 mice; details: female, C57BL/6, mouse, po, mice, 25 mg/kg p.o.
Experimental: These protocols are described below under the heading In vivo Studies. Three non-fasted female C57BL/6 mice were orally administered test compound at a dose of 25 mg/kg p.o. as a solution in 20% hydroxypropyl-beta-cyclodextrin (HPβCD) at a dose volume of 5 mL/kg. Blood samples were collected at 0.5, 2, and 4 h post dose via retro-orbital bleed or venipuncture of the dorsal metatarsal vein. Blood samples were collected into tubes containing anticoagulant (Heparin-Na) and placed on wet ice. The plasma fraction was separated by centrifugation and frozen at −20° C. for up to 4 h and −80° C. after 4 h unless analyzed shortly after sample collection. Colon samples were collected at 4 h post dose. […] The colon was further washed by putting it in 5 mL of saline and shaken for 5 seconds. The colon sample was then patted dry, weighed, and homogenized as 1 part tissue (g) to 4 parts HPLC grade water (mL). Concentrations of the compound in plasma and colon homogenate were determined using a qualified liquid chromatography-triple quadrupole mass spectrometry (LC-MS/MS) method. […] Three non-fasted female C57BL/6 mice were orally administered test compound at a dose of 25 mg/kg p.o. as a solution in 20% HPβCD at a dose volume of 5 mL/kg. Blood samples were collected at 0.5, 2, and 4 h post dose via retro-orbital bleed or dorsal metatarsal vein. Blood samples were collected into tubes containing anticoagulant (Heparin-Na) and placed on wet ice. The plasma fraction was separated by centrifugation and frozen at −20° C. for up to 4 h and −80° C. after 4 h unless analyzed shortly after sample collection. Colon samples were collected at 4 h post dose. From 2 cm below the cecum, a 4 cm sample of the colon was dissected, cut open on the longitudinal axis, and the solid contents removed by flushing with 2 mL of saline. The colon was further washed by putting it in 5 mL of saline and shaken for 5 seconds. The colon sample was then patted dry, weighed, and homogenized as 1 part tissue (g) to 4 parts HPLC grade water (mL). Concentrations of the compound in plasma and colon homogenate were determined using a qualified liquid chromatography-triple quadrupole mass spectrometry (LC-MS/MS) method.

[2] = colon, read-out: Colon Concentration After p.o. Dosing, Mean
[3] = plasma, read-out: Plasma Concentration After p.o. Dosing, Mean

SMILES | IC50 (IFNα pSTAT4 (JAK1/TYK2)) [nM] | concentration at 4 h [1, 2] [ng/g] | concentration at 0.5 h [1, 3] [ng/mL] | concentration at 2 h [1, 3] [ng/mL] | concentration at 4 h [1, 3] [ng/mL]
N#CC[C@H]1CC[C@H](n2c(CC(=O)NCC3CCOCC3)nc3cnc4[nH]ccc4c32)CC1 [Ex. 10, 2-(1-((1r,4r)-4-(Cyanomethyl)cyclohexyl)-1,6-dihydroimidazo[4,5-d]pyrrolo[2,3-b]pyridin-2-yl)-N-((tetrahydro-2H-pyran-4-yl)methyl)acetamide] | 39.4 | 11700 | 18.8 | 3 | 1.7
N#CCC12CCC(NC(=O)Cc3nc4cnc5[nH]ccc5c4n3[C@H]3CC[C@H](CC#N)CC3)(CC1)C2 [Ex. 55, N-(4-(Cyanomethyl)bicyclo[2.2.1]heptan-1-yl)-2-(1-((1r,4r)-4-(cyanomethyl)cyclohexyl)-1,6-dihydroimidazo[4,5-d]pyrrolo[2,3-b]pyridin-2-yl)acetamide] | 40.4 | 3000 | 26.6 | 3.2 | 3.1
N#CC[C@H]1CC[C@H](n2c(CC(=O)NCC3CC3)nc3cnc4[nH]ccc4c32)CC1 [Ex. 3, 2-(1-((1r,4r)-4-(Cyanomethyl)cyclohexyl)-1,6-dihydroimidazo[4,5-d]pyrrolo[2,3-b]pyridin-2-yl)-N-(cyclopropylmethyl)acetamide] | 10.1 | 2150 | 41.4 | 3.9 | 1.5
N#CCC1CCC(n2c(-c3c[nH]cn3)nc3cnc4[nH]ccc4c32)CC1 (stereo not shown) [Ex. 2, 2-((1r,4r)-4-(2-(1H-Imidazol-4-yl)imidazo[4,5-d]pyrrolo[2,3-b]pyridin-1(6H)-yl)cyclohexyl)acetonitrile] | 20.8 | 7600 | 24.5 | 4.2 | 1.3
CC(C)(C#N)CNC(=O)Cc1nc2cnc3[nH]ccc3c2n1[C@H]1CC[C@H](CC#N)CC1 [Ex. 22, N-(2-Cyano-2-methylpropyl)-2-(1-((1r,4r)-4-(cyanomethyl)cyclohexyl)-1,6-dihydroimidazo[4,5-d]pyrrolo[2,3-b]pyridin-2-yl)acetamide] | 38.5 | 12000 | 47 | 9.6 | 5
N#CC[C@H]1CC[C@H](n2c(CC(=O)NCC3(O)CCC3)nc3cnc4[nH]ccc4c32)CC1 [Ex. 34, 2-(1-((1r,4r)-4-(Cyanomethyl)cyclohexyl)-1,6-dihydroimidazo[4,5-d]pyrrolo[2,3-b]pyridin-2-yl)-N-((1-hydroxycyclobutyl)methyl)acetamide] | 42.8 | 7400 | 43.1 | 5.4 | 2.6
CC(C)(O)CNC(=O)Cc1nc2cnc3[nH]ccc3c2n1[C@H]1CC[C@H](CC#N)CC1 [Ex. 1, 2-(1-((1r,4r)-4-(Cyanomethyl)cyclohexyl)-1,6-dihydroimidazo[4,5-d]pyrrolo[2,3-b]pyridin-2-yl)-N-(2-hydroxy-2-methylpropyl)acetamide] |  | 8590 | 13.4 | 6.1 | 3.3
N#CC[C@H]1CC[C@H](n2c(CC(=O)NCC3(O)CC3)nc3cnc4[nH]ccc4c32)CC1 [Ex. 85, 2-(1-((1r,4r)-4-(Cyanomethyl)cyclohexyl)-1,6-dihydroimidazo[4,5-d]pyrrolo[2,3-b]pyridin-2-yl)-N-((1-hydroxycyclopropyl)methyl)acetamide] | 81.4 | 5880 | 15.6 | 4.2 | 2.3
N#CCCNC(=O)Cc1nc2cnc3[nH]ccc3c2n1[C@H]1CC[C@H](CC#N)CC1 [Ex. 4, N-(2-Cyanoethyl)-2-(1-((1r,4r)-4-(cyanomethyl)cyclohexyl)-1,6-dihydroimidazo[4,5-d]pyrrolo[2,3-b]pyridin-2-yl)acetamide] | 64.7 | 4450 | 12.9 | 7.5 | 3.3
N#CC[C@H]1CC[C@H](n2c(CC(=O)NC3CCOCC3)nc3cnc4[nH]ccc4c32)CC1 [Ex. 5, 2-(1-((1r,4r)-4-(Cyanomethyl)cyclohexyl)-1,6-dihydroimidazo[4,5-d]pyrrolo[2,3-b]pyridin-2-yl)-N-(tetrahydro-2H-pyran-4-yl)acetamide] | 38.1 | 5330 | 31.9 | 8.8 | 6
